Test results reported in PubChem BioAssay AID2060610 (Molecular Pharmacology Branch, DTP, NCI, 2025).

Test system: 616215-338-R-J1-PDC complex spheroids, viability % test/control
Experiment: Anticancer human tumor 616215-338-R-J1-PDC patient-derived colon adenocarcinoma cell line growth inhibition [CLK]
Details: for IC50: curve of first compound; for viability, T/C: stronger effect = lower value
Method in brief: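 Multi-cell-type spheroids combined patient-derived tumor cells with HUVEC endothelial cells and human mesenchymal stem cells. Paired agents were dosed in half-log steps down from about clinical Cmax, or from 10 microM where Cmax was unknown.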

[1] = second compound 0.0316 µM, first compound 0.0316 µM
[2] = second compound 0.0316 µM, first compound 0.1 µM
[3] = second compound 0.0316 µM, first compound 0.316 µM
[4] = second compound 0.0316 µM, first compound 1 µM
[5] = second compound 0.0316 µM, first compound 3.16 µM
[6] = second compound 0.0316 µM, first compound 10 µM
[7] = second compound 0.1 µM, first compound 0.0316 µM
[8] = second compound 0.1 µM, first compound 0.1 µM
[9] = second compound 0.1 µM, first compound 0.316 µM
[10] = second compound 0.1 µM, first compound 1 µM
[11] = second compound 0.1 µM, first compound 3.16 µM
[12] = second compound 0.1 µM, first compound 10 µM
[13] = second compound 0.316 µM, first compound 0.0316 µM
[14] = second compound 0.316 µM, first compound 0.1 µM
[15] = second compound 0.316 µM, first compound 0.316 µM
[16] = second compound 0.316 µM, first compound 1 µM
[17] = second compound 0.316 µM, first compound 3.16 µM
[18] = second compound 0.316 µM, first compound 10 µM
[19] = second compound 1 µM, first compound 0.0316 µM
[20] = second compound 1 µM, first compound 0.1 µM
[21] = second compound 1 µM, first compound 0.316 µM
[22] = second compound 1 µM, first compound 1 µM
[23] = second compound 1 µM, first compound 3.16 µM
[24] = second compound 1 µM, first compound 10 µM
[25] = second compound 3.16 µM, first compound 0.0316 µM
[26] = second compound 3.16 µM, first compound 0.1 µM
[27] = second compound 3.16 µM, first compound 0.316 µM
[28] = second compound 3.16 µM, first compound 1 µM
[29] = second compound 3.16 µM, first compound 3.16 µM
[30] = second compound 3.16 µM, first compound 10 µM
[31] = second compound 10 µM, first compound 0.0316 µM
[32] = second compound 10 µM, first compound 0.1 µM
[33] = second compound 10 µM, first compound 0.316 µM
[34] = second compound 10 µM, first compound 1 µM
[35] = second compound 10 µM, first compound 3.16 µM
[36] = second compound 10 µM, first compound 10 µM
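Further: spheroids exposed to agents for 7 days.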
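Wherever viability, T/C is given: 100% = DMSO vehicle wells.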

`CC(Nc1ccc2c(c1)OCCn1cc(N3C(=O)OCC3C(F)F)nc1-2)C(N)=O` (centres undefined) + CN1CCN(c2cc(C(=O)Nc3cc4cc(-c5cnn(C)c5)ccc4cn3)ccn2)CC1 was tested, and the IC50 (second compound 0.0316 µM) was > 10000 nM, the IC50 (second compound 0.1 µM) was 1980 nM and the IC50 (second compound 0.316 µM) was < 31.6 nM. The IC50 (second compound 1 µM) was < 31.6 nM, the IC50 (second compound 3.16 µM) was < 31.6 nM and the IC50 (second compound 10 µM) was < 31.6 nM. The viability, T/C [1] was 94.6%, the viability, T/C [2] was 108% and the viability, T/C [3] was 101%. The viability, T/C [4] was 92%, the viability, T/C [5] was 78.3% and the viability, T/C [6] was 52.4%. It also gave a viability, T/C [7] of 105%, a viability, T/C [8] of 97.9% and a viability, T/C [9] of 75%. For the same compound, the viability, T/C [10] was 59.2%, the viability, T/C [11] was 44.7% and the viability, T/C [12] was 38%. It also gave a viability, T/C [13] of 26.2%, a viability, T/C [14] of 22% and a viability, T/C [15] of 17.6%. It also gave a viability, T/C [16] of 13.8%, a viability, T/C [17] of 12.9% and a viability, T/C [18] of 10.4%. For the same compound, the viability, T/C [19] was 0.14%, the viability, T/C [20] was 0.18% and the viability, T/C [21] was 0.22%. The viability, T/C [22] was 0.1%, the viability, T/C [23] was 0.88% and the viability, T/C [24] was 0.09%. It also gave a viability, T/C [25] of 0.11%, a viability, T/C [26] of 0.15% and a viability, T/C [27] of 1.65%. For the same compound, the viability, T/C [28] was 1.21%, the viability, T/C [29] was 1.32% and the viability, T/C [30] was 1.75%. For the same compound, the viability, T/C [31] was 0.13%, the viability, T/C [32] was 0.18% and the viability, T/C [33] was 1.39%. The viability, T/C [34] was 0.23%, the viability, T/C [35] was 0.22% and the viability, T/C [36] was 0.23%.
In the case of `CC1COCCN1c1cc(C2(S(C)(=N)=O)CC2)nc(-c2ccnc3[nH]ccc23)n1` (centres undefined) + CNC(=O)c1ccc(Nc2nc(OC3CCCC3)c3c(-c4ccc5nc(C)oc5c4)c[nH]c3n2)c(OC)c1, the IC50 (second compound 0.0316 µM) is reported as > 10000 nM, the IC50 (second compound 0.1 µM) is reported as 1220 nM and the IC50 (second compound 0.316 µM) is reported as < 31.6 nM. For the same compound, the IC50 (second compound 1 µM) was < 31.6 nM, the IC50 (second compound 3.16 µM) was 42 nM and the IC50 (second compound 10 µM) was < 31.6 nM. For the same compound, the viability, T/C [1] was 95.5%, the viability, T/C [2] was 91.2% and the viability, T/C [3] was 90.9%. It also gave a viability, T/C [4] of 98.4%, a viability, T/C [5] of 101% and a viability, T/C [6] of 78.7%. It also gave a viability, T/C [7] of 53.4%, a viability, T/C [8] of 57.4% and a viability, T/C [9] of 52.6%. The viability, T/C [10] was 51.8%, the viability, T/C [11] was 44.8% and the viability, T/C [12] was 36.6%. It also gave a viability, T/C [13] of 48.3%, a viability, T/C [14] of 45.4% and a viability, T/C [15] of 51.5%. The viability, T/C [16] was 46.7%, the viability, T/C [17] was 56.9% and the viability, T/C [18] was 36.1%. It also gave a viability, T/C [19] of 54.5%, a viability, T/C [20] of 44% and a viability, T/C [21] of 47%. For the same compound, the viability, T/C [22] was 46.4%, the viability, T/C [23] was 44.5% and the viability, T/C [24] was 31.7%. It also gave a viability, T/C [25] of 49.7%, a viability, T/C [26] of 49.6% and a viability, T/C [27] of 46.3%. The viability, T/C [28] was 39.8%, the viability, T/C [29] was 37.7% and the viability, T/C [30] was 29.5%. For the same compound, the viability, T/C [31] was 43.1%, the viability, T/C [32] was 37.4% and the viability, T/C [33] was 40.9%. It also gave a viability, T/C [34] of 36.9%, a viability, T/C [35] of 33.3% and a viability, T/C [36] of 30.9%.
